Test results published in US12589158B2 (priority 2022, dated 2026).
Where a SMILES comes first, the peptide text is derived from it.

Assays:
human GLP-1 receptor = target: T1, human GLP-1 receptor (Homo sapiens, UniProt P43220); experiment: In vitro binding activity to human GLP-1 receptor ([125I]GLP-1, crude cellular membranes); conditions: ratio of the Ki value of the endogenous ligand to the Ki value of the test compound; larger = stronger binding
T1 construct: expressed in transfected cells; crude membranes
Method: 89 μL of membrane dissolved in binding buffer (50 mM Hepes, pH 7.4, 5 mM MgCl2, 5 mM EDTA, 0.005% TWEEN, 0.005% HSA) is transferred to a 96-well test plate (5 μg/well). The compound is serially diluted in DMSO, and then, 1 μL of the diluted compound or 100% DMSO is added to the test plate containing the membrane solution. 10 μL of [^125I] […] The test plate is left at room temperature for 90 minutes. The membrane complexes are harvested into a GF/B plate pre-coated with 0.5% PEI by using a Cell Harvester, and washed for 3 times with 500 μL of pre-cooled elution buffer (50 mM Hepes, pH 7.4, 500 mM NaCl) at 4° C. After drying at 37° C. for 2 hours, 50 μL of scintillation fluid is added to each well. The plate is read with a MicroBeta2 scintillation counter after sealing and settling for at least 1 hour so as to determine the membrane bound radioligand level.
(§1) The absolute IC50 concentration of the compound is derived by non-linear regression of the binding percent of [^125I] […] The IC50 concentration is converted to Ki (Ki is the inhibition constant) using the Cheng-Prusoff equation.

human GIP receptor = target: T2, human GIP receptor (Homo sapiens, UniProt P48546); experiment: In vitro binding activity to human GIP receptor ([125I]GIP, crude cellular membranes); conditions: ratio of the Ki value of the endogenous ligand to the Ki value of the test compound; larger = stronger binding
T2 construct: expressed in transfected cells; crude membranes
T2 sequence (P48546 22-466): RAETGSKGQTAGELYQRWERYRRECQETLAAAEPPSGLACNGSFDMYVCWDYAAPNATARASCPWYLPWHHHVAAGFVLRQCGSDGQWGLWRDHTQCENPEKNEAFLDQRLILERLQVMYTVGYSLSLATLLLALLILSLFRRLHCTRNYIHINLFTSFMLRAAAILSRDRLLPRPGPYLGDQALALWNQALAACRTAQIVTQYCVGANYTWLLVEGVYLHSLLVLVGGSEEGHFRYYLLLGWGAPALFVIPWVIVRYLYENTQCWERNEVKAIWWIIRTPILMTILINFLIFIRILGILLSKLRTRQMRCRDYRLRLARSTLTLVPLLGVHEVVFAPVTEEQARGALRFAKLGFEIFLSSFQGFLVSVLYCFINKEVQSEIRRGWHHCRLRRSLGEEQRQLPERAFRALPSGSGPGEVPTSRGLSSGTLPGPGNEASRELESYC
Method: The compound is serially diluted in DMSO, and then, 2 μL of the diluted compounds or 100% DMSO is added to the test plate containing the membrane solution. […] The test plate is left at room temperature for 90 minutes. […] After drying at 37° C. for 2 hours, 50 μL of scintillation fluid is added to each well. The plate is read with a MicroBeta2 scintillation counter after sealing and settling for at least 1 hour so as to determine the membrane bound radioligand level.
as §1

db/db mice = experiment: Pharmacodynamics in db/db mice, single subcutaneous administration (blood glucose); format: in vivo; conditions: longest time with random blood glucose P<0.05 vs. vehicle
Method: The “inhibition of blood glucose AUC” as disclosed in the present invention is the reduction percentage of blood glucose AUC in the group taken the test compound as compared with the group taken the Vehicle. Inhibition of blood glucose AUC=(blood glucose AUCVehicle-blood glucose AUCtest compound)/blood glucose AUCVehicle.
In this study, 8-9 week old male db/db mice are used. The db/db mice are placed in an individual ventilated cage (IVC) facility with a controlled temperature (20-26° C.) and humidity (40-70%) and a controlled 12h: 12 h light-dark cycle. The mice received food and water ad libitum. Blood is sampled at the tail tip, and the fasting blood glucose is measured by a Roche blood glucose meter. The mice are randomly divided into groups according to the initial blood glucose and initial body weight (n=6/group), and each group had similar body weight and blood glucose.
After a single subcutaneous administration, the random blood glucoses are recorded at the set time point (0 to 120 hours, the recording of the random blood glucose is stopped until there is no difference between the random blood glucose of the compound and that of the vehicle group), and the daily body weight and food intake are also recorded. The data results are statistically analyzed using GraphPad Prism8, and the statistical differences among the groups are analyzed following a T-Test. […]

[1] = Pharmacokinetics following single administration in SD rat; design: species or system SD rats; conditions: in vivo, sc, 50 nmol/kg
Summary of the method: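 Male SD rats (230–268 g, n=3) dosed once at 50.0 nmol/kg s.c. or 25.0 nmol/kg i.v. Plasma protein precipitated with acetonitrile containing internal standards; drug concentration measured by LC-MS/MS.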

T1 sequence (P43220 24-463): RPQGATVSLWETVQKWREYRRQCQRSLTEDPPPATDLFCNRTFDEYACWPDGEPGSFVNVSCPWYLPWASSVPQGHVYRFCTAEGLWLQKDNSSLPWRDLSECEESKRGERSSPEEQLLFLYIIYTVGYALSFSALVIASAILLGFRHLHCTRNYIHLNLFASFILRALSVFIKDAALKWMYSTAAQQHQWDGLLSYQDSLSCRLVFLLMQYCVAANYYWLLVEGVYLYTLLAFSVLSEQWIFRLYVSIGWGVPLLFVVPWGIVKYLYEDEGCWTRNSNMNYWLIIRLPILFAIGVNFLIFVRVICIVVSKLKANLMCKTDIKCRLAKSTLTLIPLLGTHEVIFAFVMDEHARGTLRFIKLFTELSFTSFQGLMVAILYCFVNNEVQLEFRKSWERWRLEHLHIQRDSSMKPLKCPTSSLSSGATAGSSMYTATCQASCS

Structure (SMILES)	GLP-1R Ki ratio (human GLP-1 receptor)	GIPR Ki ratio (human GIP receptor)	Hypoglycemic Duration (db/db mice; Group 1, single s.c. 10 nmol/kg) [h]	MRT inf [1] [h]	MRT last [1] [h]	Hypoglycemic Duration (db/db mice; Group 2, single s.c. 10 nmol/kg) [h]
CC[C@H](C)[C@H](NC(=O)C(C)(C)NC(=O)[C@H](Cc1ccc(O)cc1)NC(=O)[C@H](CC(=O)O)NC(=O)[C@H](CO)NC(=O)[C@@H](NC(=O)C(C)(Cc1ccccc1)NC(=O)[C@@H](NC(=O)CNC(=O)[C@H](CCC(=O)O)NC(=O)C(C)(C)NC(=O)[C@@H](N)Cc1ccc(O)cc1)[C@@H](C)O)[C@@H](C)O)C(=O)NC(C)(C)C(=O)N[C@@H](CC(C)C)C(=O)N[C@@H](CC(=O)O)C(=O)N[C@@H](CCCCN)C(=O)N[C@@H](CCC(N)=O)C(=O)N[C@@H](C)C(=O)N[C@@H](CCC(N)=O)C(=O)N[C@@H](C)C(=O)N[C@@H](CCC(=O)O)C(=O)N[C@@H](Cc1ccccc1)C(=O)N[C@H](C(=O)N[C@@H](CCCCN)C(=O)N[C@@H](Cc1c[nH]c2ccccc12)C(=O)N[C@@H](CC(C)C)C(=O)N[C@@H](CC(C)C)C(=O)N[C@@H](CCCCN)C(=O)NCC(=O)NCC(=O)N1CCC[C@H]1C(=O)N[C@@H](CO)C(=O)N[C@@H](CO)C(=O)NCC(=O)N[C@@H](C)C(=O)N1CCC[C@H]1C(=O)N1CCC[C@H]1C(=O)N1CCC[C@H]1C(=O)N[C@@H](CO)C(=O)N[C@@H](CCCCN)C(N)=O)C(C)C (stereo partly shown) [P001, reference compound] (HELM PEPTIDE1{Y.[Aib].E.G.T.[CC(Cc1ccccc1)(N[*:1])C(=O)[*:2]].T.S.D.Y.[Aib].I.[Aib].L.D.K.Q.A.Q.A.E.F.V.K.W.L.L.K.G.G.P.S.S.G.A.P.P.P.S.K.[am]}$$$$V2.0; N-terminus assumed)	19.52	8.82	32	–	–	–
CC[C@H](C)[C@H](NC(=O)C(C)(C)NC(=O)[C@H](Cc1ccc(O)cc1)NC(=O)[C@H](CC(=O)O)NC(=O)[C@H](CO)NC(=O)[C@@H](NC(=O)C(C)(Cc1ccccc1)NC(=O)[C@@H](NC(=O)CNC(=O)[C@H](CCC(=O)O)NC(=O)C(C)(C)NC(=O)[C@@H](N)Cc1ccc(O)cc1)[C@@H](C)O)[C@@H](C)O)C(=O)NC(C)(C)C(=O)N[C@@H](CC(C)C)C(=O)N[C@@H](CC(=O)O)C(=O)N[C@@H](CCCCN)C(=O)N[C@@H](CCC(N)=O)C(=O)N[C@@H](C)C(=O)N[C@@H](CCC(N)=O)C(=O)N[C@@H](C)C(=O)N[C@@H](CCC(=O)O)C(=O)N[C@@H](Cc1ccccc1)C(=O)N[C@H](C(=O)N[C@@H](CCCCNC(=O)COCCOCCNC(=O)COCCOCCNC(=O)CC[C@H](NC(=O)CC[C@H](NC(=O)CC[C@H](NC(=O)CCCCCCCCCCCCCCCCC(=O)O)C(=O)O)C(=O)O)C(=O)O)C(=O)N[C@@H](Cc1c[nH]c2ccccc12)C(=O)N[C@@H](CC(C)C)C(=O)N[C@@H](CC(C)C)C(=O)N[C@@H](CCCCN)C(=O)NCC(=O)NCC(=O)N1CCC[C@H]1C(=O)N[C@@H](CO)C(=O)N[C@@H](CO)C(=O)NCC(=O)N[C@@H](C)C(=O)N1CCC[C@H]1C(=O)N1CCC[C@H]1C(=O)N1CCC[C@H]1C(=O)N[C@@H](CO)C(=O)N[C@@H](CCCCN)C(N)=O)C(C)C (stereo partly shown) [P015]	0.17	–	–	31.4 ± 1.35	26.8 ± 0.557	32
